Test results taken from patent US5321043A, “Method of combatting transplant rejection” (The University of Melbourne, priority 1992, dated 1994).
“Also recorded” adds a separate entry of the source.

Tests used:
[1] = tested on: MLC response of responder lymphocytes to irradiated EBV-transformed lymphoblastoid cells; experiment: Mixed lymphocyte culture (MLC) suppression by CyA and PG analogues, alone and combined (tritiated thymidine uptake); assay type: cell-based, human; settings: for Suppression of MLC responses, mean % decrease of cpm vs drug-free cultures: mean of five donors
Protocol: Heparinised blood was obtained from five healthy donors without history of previous blood transfusion, pregnancy, or organ transplantation.
Prostaglandin (PG) analogues PGE1, PGE2, PGF2a, and PGI2 were supplied by the Upjohn Company (Kalamazoo, Mich.) in the form of 15-(s)-15-methyl PGE1, 16,16-dimethyl PGE2, 16,16-dimethyl PGF2α, and 9-deoxy-2,9a-methano-3-oxa-4,5,6-trinor-3,7-(1', 3'-interphenylene)-13,14'-dihydroprostaglandin FI (Compound A). Each was provided in methyl acetate at 10 mg/mL that was subsequently diluted, first with ethyl alcohol to a concentration of 1 mg/mL and thereafter with physiological saline to the concentration range required for the study, 10.0-0.001 μg/mL.
Responder lymphocytes were isolated from the healthy donor heparinised blood by density gradient separation and suspended in glutamine, antibiotic-supplemented RPMI medium containing 10% autologous responder lymphocyte donor serum at a concentration of 1 ×10^6 cells/mL. The stimulator population consisted of Epstein-Barr virus (EBV)-transformed lymphoblastoid cells that were irradiated (130 Gy) before suspension also at 1×10^6 cells/mL in glutamine, antibiotic-supplemented RPMI medium that contained 10% autologous responder lymphocyte donor serum.
Equal volumes (0.1 mL) of responder and stimulator cells were incubated in triplicate wells of microtitre trays with each of the following:
Following incubation at 37° C. (5% CO2) for 4 days, […] of tritiated thymidine was added to all cultures before further incubation for 6-8 hours, after which cells were automatically harvested (Skatron, Liebyen, Norway) on Titertek filter paper (Flow Laboratories, Irvine, Scotland) that was placed in vials containing liquid scintillation fluid for counting in a Beckman beta counter (Beckman, Brea, Calif.).

renal allograft = experiment: Rabbit renal allograft survival; assay type: in vivo
Protocol: Left orthotopic renal transplantation was performed from New Zealand White rabbit donors into Anglo lop-ear recipients. See D. Francis et al., Aust. N. Z. J. Surgery 60, 45, 1990. Contralateral nephrectomy and graft biopsy were performed on the first post-operative day. Each recipient was subsequently dependent on its transplant for renal function. Serum creatinine (sCr) was measured every 48 hours and animals were culled once sCr had risen above 1.2 mMoles/1, taken as an arbitrary end-point representing graft failure. Graft biopsies were performed weekly and post-mortem to ensure that graft loss was secondary to rejection. Standard haematoxylin and eosin and Masson's trichrome stains were performed.
Compound A was provided as a powder which was dissolved in absolute ethanol to yield a 1 mg/ml solution. 50 μg/kg/day was administered subcutaneously for seven days commencing perioperatively. Ethanol (50 μl/kg/day) was administered in vehicle-only control animals.

[2] = Blood CyA levels after seven days treatment in nephrotoxicity study (Abbott TDX fluorescence immunoassay); assay type: in vivo, rabbit; settings: CyA administered parenterally
Protocol: Compound A was provided as a powder which was dissolved in absolute ethanol to yield a […] solution. 50 ug/kg/day was administered subcutaneously for seven days. Ethanol (50 ul/kg/day) was administered in vehicle-only control animals.

[3] = tested on: New Zealand White rabbits; experiment: Acute cyclosporine (CyA) nephrotoxicity in rabbits (serum creatinine, urea, histology); assay type: in vivo, rabbit; settings: Compound A 50 ug/kg/day s.c. with CyA 100 mg/kg/day i.v.
Protocol: 50 ug/kg/day was administered subcutaneously for seven days. Ethanol (50 ul/kg/day) was administered in vehicle-only control animals.
Serum creatinine (Cr) and urea were measured prior to commencement of treatment (day 0) and 24 hours following treatment (day 7). Day 7 renal biopsies were stained with haematoxylin and eosin and Masson's trichrome.

[4] = PG analogue 0.01 μg/mL + CyA 0.001 μg/mL
[5] = PG analogue 0.01 μg/mL + CyA 0.01 μg/mL
[6] = PG analogue 0.01 μg/mL + CyA 0.1 μg/mL
[7] = PG analogue 0.01 μg/mL + CyA 1.0 μg/mL
[8] = PG analogue 0.01 μg/mL + CyA 10.0 μg/mL
[9] = PG analogue 0.1 μg/mL + CyA 0.001 μg/mL
[10] = PG analogue 0.1 μg/mL + CyA 0.01 μg/mL
[11] = PG analogue 0.1 μg/mL + CyA 0.1 μg/mL
[12] = PG analogue 0.1 μg/mL + CyA 1.0 μg/mL
[13] = PG analogue 0.1 μg/mL + CyA 10.0 μg/mL
[14] = PG analogue 1.0 μg/mL + CyA 0.001 μg/mL
[15] = PG analogue 1.0 μg/mL + CyA 0.01 μg/mL
[16] = PG analogue 1.0 μg/mL + CyA 0.1 μg/mL
[17] = PG analogue 1.0 μg/mL + CyA 1.0 μg/mL
[18] = PG analogue 1.0 μg/mL + CyA 10.0 μg/mL
[19] = PG analogue 10.0 μg/mL + CyA 0.001 μg/mL
[20] = PG analogue 10.0 μg/mL + CyA 0.01 μg/mL
[21] = PG analogue 10.0 μg/mL + CyA 0.1 μg/mL
[22] = PG analogue 10.0 μg/mL + CyA 1.0 μg/mL
[23] = PG analogue 10.0 μg/mL + CyA 10.0 μg/mL

Row | Structure (SMILES) | Suppression of MLC responses by CyA in combination with PG analogue [1, 4] | Suppression of MLC responses by CyA in combination with PG analogue [1, 5] | Suppression of MLC responses by CyA in combination with PG analogue [1, 6] | Suppression of MLC responses by CyA in combination with PG analogue [1, 7] | Suppression of MLC responses by CyA in combination with PG analogue [1, 8] | Suppression of MLC responses by CyA in combination with PG analogue [1, 9] | Suppression of MLC responses by CyA in combination with PG analogue [1, 10] | Suppression of MLC responses by CyA in combination with PG analogue [1, 11] | Suppression of MLC responses by CyA in combination with PG analogue [1, 12] | Suppression of MLC responses by CyA in combination with PG analogue [1, 13] | Suppression of MLC responses by CyA in combination with PG analogue [1, 14] | Suppression of MLC responses by CyA in combination with PG analogue [1, 15] | Suppression of MLC responses by CyA in combination with PG analogue [1, 16] | Suppression of MLC responses by CyA in combination with PG analogue [1, 17] | Suppression of MLC responses by CyA in combination with PG analogue [1, 18] | Suppression of MLC responses by CyA in combination with PG analogue [1, 19] | Suppression of MLC responses by CyA in combination with PG analogue [1, 20] | Suppression of MLC responses by CyA in combination with PG analogue [1, 21] | Suppression of MLC responses by CyA in combination with PG analogue [1, 22] | Suppression of MLC responses by CyA in combination with PG analogue [1, 23] | other results
1 | CCCCC(C)(C)[C@H](O)/C=C/[C@@H]1[C@@H](C/C=C\CCCC(=O)O)[C@@H](O)C[C@H]1O [PGF2α, 16,16-dimethyl PGF2α] | 14% | 25% | 55% | 70% | 86% | 14% | 24% | 55% | 72% | 86% | 31% | 30% | 58% | 76% | 85% | 58% | 65% | 69% | 79% | 86% | interaction with CyA on MLC suppression ([1]; combination with CyA, listed as PGF2a): no influence further than that exerted when each was added alone; also recorded: no indication of synergistic interaction with CyA; minimum concentration which alone induced 50% MLC inhibition ([1]; single agent): 10.0 µg/mL; Suppression of MLC responses, mean % decrease of cpm vs drug-free cultures ([1]; single agent at 0.001 μg/mL): 0%; Suppression of MLC responses, mean % decrease of cpm vs drug-free cultures ([1]; single agent at 0.01 μg/mL): 4%; Suppression of MLC responses, mean % decrease of cpm vs drug-free cultures ([1]; single agent at 0.1 μg/mL): 16%; Suppression of MLC responses, mean % decrease of cpm vs drug-free cultures ([1]; single agent at 1.0 μg/mL): 29%; Suppression of MLC responses, mean % decrease of cpm vs drug-free cultures ([1]; single agent at 10.0 μg/mL): 50%
2 | CCCCC[C@H](O)CC[C@@H]1[C@H]2Cc3cccc(OCC(=O)O)c3C[C@H]2C[C@H]1O [Compound A, 9-deoxy-2',9α-methano-3-oxa-4,5,6-trinor-3,7-(1',3'-interphenylene)-13, 14--dihydro-prostaglandinF1] | 27% | 58% | 75% | 86% | 87% | 68% | 76% | 86% | 85% | 85% | 81% | 85% | 85% | 85% | 88% | 86% | 88% | 85% | 86% | 86% | effect on renal allograft survival (renal allograft; Compound A 50 μg/kg/day s.c., CyA 20 mg/kg where combined): prolonged allograft survival over that of untreated animals; Median Graft Survival (renal allograft; Compound A 50 μg/kg/day subcutaneously for seven days, no CyA): 13.5 days; effect on CyA bioavailability [2]: without effecting CyA bioavailability; effect on renal function, as measured by serum Cr and urea [3]: significant protective effect on renal function; effect on renal function, as measured by serum Cr and urea ([3]; listed as PGI2 analogue): significant protective affect on renal function; decrease in PG analogue concentration necessary for 50% MLC suppression when combined with CyA vs alone ([1]; combination with CyA): 10 fold; interaction with CyA on MLC suppression ([1]; combination with CyA): a synergy that parallels that observed between CyA and the PGE analogues; Suppression of MLC responses, mean % decrease of cpm vs drug-free cultures ([1]; single agent at 0.001 μg/mL): 10%; Suppression of MLC responses, mean % decrease of cpm vs drug-free cultures ([1]; single agent at 0.01 μg/mL): 22%; Suppression of MLC responses, mean % decrease of cpm vs drug-free cultures ([1]; single agent at 0.1 μg/mL): 51%; Suppression of MLC responses, mean % decrease of cpm vs drug-free cultures ([1]; single agent at 1.0 μg/mL): 61%; Suppression of MLC responses, mean % decrease of cpm vs drug-free cultures ([1]; single agent at 10.0 μg/mL): 77%; times more effective in suppressing the MLC response than PGE1 and PGE2 ([1]; single agents): 10 times
